Where two headings read alike, the source gives them in different places.
Tests used:
[1] = Terminal steam sterilisation (Example 3): recovery (product potency); format: physicochemical; conditions: 20 L batches at 16 mg/ml and 0.25 mg/ml without buffer; conventional terminal steam sterilisation
Procedure: The influence of terminal steam sterilisation on the chemical properties of the methacholine drug product was determined, specifically in terms of the influence of heat on the product potency and impurity levels within the formulations.
[…] A formulation having a relatively high concentration of methacholine was used so that any changes in chemical properties were readily apparent.
The procedure described below was used for performing the high pressure liquid chromatography (HPLC) assay analysis of methacholine chloride in solution.

[2] = cited from earlier work
[3] = cited from earlier work; remark: listed apart in the source

Q: For `CC(=O)OC(C)C[N+](C)(C)C` (centres unmarked) [methacholine, methacholine chloride], which “stability to terminal steam sterilisation” value [1] is on record?
A: Its value is “did not withstand the high temperatures”.

Q: And the “pH of the saline solution” value ([2]; methacholine 0.39 mg/ml in saline)?
A: Its value is 3.9.

Q: And the “pH of the saline solution” value ([2]; methacholine 50 mg/ml in saline)?
A: The value was 2.7.

Q: What about the decomposition by hydrolysis ([3]; pH of the solution above 6) of the same compound?
A: Its decomposition by hydrolysis is “rapidly decompose”.

Q: And the “time stable in solution” value ([3]; solutions of >0.3 mg/ml, stored at 4° C.)?
A: Its value is “at least five”.
